Columns and labels:
Assay type in all cases: in vivo
[1] = tested on: Alopecurus myosuroides; experiment: Post-emergence herbicidal effect against ALOMY; settings: visual assessment after about 3 weeks, 100% = plants have died
Protocol: (§1) 1. Post-Emergence Herbicidal Effect and Crop Plant Compatibility
(§2) Seeds of monocotyledonous and dicotyledonous weed and crop plants are laid out in sandy loam soil in wood-fibre pots, covered with soil and cultivated in a greenhouse under good growth conditions. 2 to 3 weeks after sowing, the test plants are treated at the one-leaf stage. The compounds of the invention, formulated in the form of wettable powders (WP) or as emulsion concentrates (EC), are then sprayed onto the green parts of the plants as aqueous suspension or emulsion at a water application rate equating to 600 to 800 l/ha with addition of 0.2% wetting agent. After the test plants have been left to stand in the greenhouse under optimal growth conditions for about 3 weeks, the action of the preparations is assessed visually in comparison to untreated controls (herbicidal action in percent (%): 100% activity=the plants have died, 0% activity=like control plants).

[2] = tested on: Avena fatua; experiment: Post-emergence herbicidal effect against AVEFA; settings: 80 g/ha, visual assessment after about 3 weeks, 100% = plants have died
Protocol: as §1, §2

[3] = tested on: Digitaria sanguinalis; experiment: Post-emergence herbicidal effect against DIGSA; settings: visual assessment after about 3 weeks, 100% = plants have died
Protocol: as §1, §2

[4] = tested on: Echinochloa crus-galli; experiment: Post-emergence herbicidal effect against ECHCG; settings: visual assessment after about 3 weeks
Protocol: as §1, §2

[5] = tested on: Lolium rigidum; experiment: Post-emergence herbicidal effect against LOLRI; settings: 80 g/ha, visual assessment after about 3 weeks
Protocol: as §1, §2

[6] = tested on: Setaria viridis; experiment: Post-emergence herbicidal effect against SETVI; settings: visual assessment after about 3 weeks
Protocol: as §1, §2

[7] = tested on: Hordeum murinum; experiment: Post-emergence herbicidal effect against HORMU; settings: 80 g/ha, visual assessment after about 3 weeks
Protocol: as §1, §2

[8] = tested on: Alopecurus myosuroides; experiment: Pre-emergence herbicidal effect against ALOMY; settings: 320 g/ha, scored visually after 3 weeks
Source text: (§3) 2. Pre-Emergence Herbicidal Effect and Crop Plant Compatibility
(§4) Seeds of monocotyledonous and dicotyledonous weed plants and crop plants are laid out in sandy loam soil in wood-fibre pots and covered with soil. The compounds of the invention, formulated in the form of wettable powders (WP) or as emulsion concentrates (EC), are then applied to the surface of the covering soil as aqueous suspension or emulsion at a water application rate equating to 600 to 800 L/ha with addition of 0.2% wetting agent.
(§5) After the treatment, the pots are placed in a greenhouse and kept under good growth conditions for the trial plants. The damage to the test plants is scored visually after a test period of 3 weeks by comparison with untreated controls (herbicidal activity in percent (%): 100% activity=the plants have died, 0% activity=like control plants).

[9] = tested on: Avena fatua; experiment: Pre-emergence herbicidal effect against AVEFA; settings: 320 g/ha, scored visually after 3 weeks
Source text: as §3, §4, §5

[10] = tested on: Echinochloa crus-galli; experiment: Pre-emergence herbicidal effect against ECHCG; settings: 320 g/ha, scored visually after 3 weeks
Source text: as §3, §4, §5

[11] = tested on: Lolium rigidum; experiment: Pre-emergence herbicidal effect against LOLRI; settings: scored visually after 3 weeks
Source text: as §3, §4, §5

SMILES: COc1cc(C)cc(C)c1C1=C(O)C2(COC3(CCOCC3)OC2)NC1=O [Example 1-1]
- Post-emergence action against ALOMY ([1]; 20 g/ha): 100%
- Post-emergence action against ALOMY ([1]; 80 g/ha): 100%
- Post-emergence action against AVEFA [2]: 100%
- Post-emergence action against DIGSA ([3]; 20 g/ha): 100%
- Post-emergence action against DIGSA ([3]; 80 g/ha): 100%
- Post-emergence action against ECHCG ([4]; 80 g/ha): 100%
- Post-emergence action against LOLRI [5]: 100%
- Post-emergence action against SETVI ([6]; 20 g/ha): 100%
- Post-emergence action against SETVI ([6]; 80 g/ha): 100%
- Post-emergence action against HORMU [7]: 100%

SMILES: COc1cc(Cl)cc(C)c1C1=C(O)C2(COC3(CCOCC3)OC2)NC1=O [Example 1-4, 3-(4-chloro-2-methoxy-6-methylphenyl)-4-hydroxy-7,11,14-trioxa-1-azadispiro[4.2.5^8.2^5]pentadec-3-en-2-one]
- Post-emergence action against ALOMY ([1]; 20 g/ha): 90%
- Post-emergence action against ALOMY ([1]; 80 g/ha): 100%
- Post-emergence action against AVEFA [2]: 100%
- Post-emergence action against DIGSA ([3]; 20 g/ha): 80%
- Post-emergence action against DIGSA ([3]; 80 g/ha): 80%
- Post-emergence action against ECHCG ([4]; 80 g/ha): 80%
- Post-emergence action against LOLRI [5]: 100%
- Post-emergence action against SETVI ([6]; 20 g/ha): 80%
- Post-emergence action against SETVI ([6]; 80 g/ha): 90%

SMILES: COc1cc(C)cc(C)c1C1=C([O-])C2(COC3(CCOCC3)OC2)NC1=O.[Na+] [Example 2-1]
- Post-emergence action against ALOMY ([1]; 20 g/ha): 90%
- Post-emergence action against ALOMY ([1]; 80 g/ha): 100%
- Post-emergence action against AVEFA [2]: 100%
- Post-emergence action against DIGSA ([3]; 20 g/ha): 90%
- Post-emergence action against DIGSA ([3]; 80 g/ha): 90%
- Post-emergence action against ECHCG ([4]; 80 g/ha): 100%
- Post-emergence action against LOLRI [5]: 100%
- Post-emergence action against SETVI ([6]; 20 g/ha): 90%
- Post-emergence action against SETVI ([6]; 80 g/ha): 90%
- Post-emergence action against HORMU [7]: 90%

SMILES: COc1cc(Cl)cc(C)c1C1=C(O)C2(COC3(CCOCC3)OC2)NC1=O [Example 2-4, sodium 3-(4-chloro-2-methoxy-6-methylphenyl)-2-oxo-7,11,14-trioxa-1-azadispiro[4.2.5^8.2^5]pentadec-3-en-4-olate]
- Post-emergence action against ALOMY ([1]; 20 g/ha): 80%
- Post-emergence action against ALOMY ([1]; 80 g/ha): 100%
- Post-emergence action against AVEFA [2]: 100%
- Post-emergence action against DIGSA ([3]; 20 g/ha): 90%
- Post-emergence action against DIGSA ([3]; 80 g/ha): 90%
- Post-emergence action against ECHCG ([4]; 80 g/ha): 80%
- Post-emergence action against LOLRI [5]: 90%
- Post-emergence action against SETVI ([6]; 20 g/ha): 80%
- Post-emergence action against SETVI ([6]; 80 g/ha): 80%

SMILES: CCC(=O)OC1=C(c2c(C)cc(C)cc2OC)C(=O)NC12COC1(CCOCC1)OC2 [Example 3-1]
- Post-emergence action against ALOMY ([1]; 20 g/ha): 90%
- Post-emergence action against ALOMY ([1]; 80 g/ha): 100%
- Post-emergence action against AVEFA [2]: 90%
- Post-emergence action against DIGSA ([3]; 20 g/ha): 90%
- Post-emergence action against DIGSA ([3]; 80 g/ha): 100%
- Post-emergence action against ECHCG ([4]; 80 g/ha): 100%
- Post-emergence action against LOLRI [5]: 100%
- Post-emergence action against SETVI ([6]; 20 g/ha): 80%
- Post-emergence action against SETVI ([6]; 80 g/ha): 90%
- Post-emergence action against HORMU [7]: 90%

SMILES: CCC(=O)OC1=C(c2c(C)cc(Cl)cc2OC)C(=O)NC12COC1(CCOCC1)OC2 [Example 3-4, 3-(4-chloro-2-methoxy-6-methylphenyl)-2-oxo-7,11,14-trioxa-1-azadispiro[4.2.5^8.2^5]pentadec-3-en-4-yl propionate]
- Post-emergence action against ALOMY ([1]; 20 g/ha): 90%
- Post-emergence action against ALOMY ([1]; 80 g/ha): 100%
- Post-emergence action against AVEFA [2]: 100%
- Post-emergence action against DIGSA ([3]; 20 g/ha): 100%
- Post-emergence action against DIGSA ([3]; 80 g/ha): 100%
- Post-emergence action against ECHCG ([4]; 80 g/ha): 100%
- Post-emergence action against LOLRI [5]: 100%
- Post-emergence action against SETVI ([6]; 20 g/ha): 80%
- Post-emergence action against SETVI ([6]; 80 g/ha): 90%

SMILES: CCOC(=O)OC1=C(c2c(C)cc(C)cc2OC)C(=O)NC12COC1(CCOCC1)OC2 [Example 4-1]
- Post-emergence action against ALOMY ([1]; 20 g/ha): 100%
- Post-emergence action against ALOMY ([1]; 80 g/ha): 100%
- Post-emergence action against AVEFA [2]: 100%
- Post-emergence action against DIGSA ([3]; 20 g/ha): 90%
- Post-emergence action against DIGSA ([3]; 80 g/ha): 90%
- Post-emergence action against ECHCG ([4]; 80 g/ha): 100%
- Post-emergence action against LOLRI [5]: 100%
- Post-emergence action against SETVI ([6]; 20 g/ha): 90%
- Post-emergence action against SETVI ([6]; 80 g/ha): 100%
- Post-emergence action against HORMU [7]: 100%

SMILES: CCOC(=O)OC1=C(c2c(C)cc(Cl)cc2OC)C(=O)NC12COC1(CCOCC1)OC2 [Example 4-4, 3-(4-chloro-2-methoxy-6-methylphenyl)-2-oxo-7,11,14-trioxa-1-azadispiro[4.2.5^8.2^5]pentadec-3-en-4-yl ethyl carbonate]
- Post-emergence action against ALOMY ([1]; 20 g/ha): 90%
- Post-emergence action against ALOMY ([1]; 80 g/ha): 100%
- Post-emergence action against AVEFA [2]: 80%
- Post-emergence action against DIGSA ([3]; 20 g/ha): 90%
- Post-emergence action against DIGSA ([3]; 80 g/ha): 90%
- Post-emergence action against ECHCG ([4]; 80 g/ha): 100%
- Post-emergence action against LOLRI [5]: 90%
- Post-emergence action against SETVI ([6]; 20 g/ha): 80%
- Post-emergence action against SETVI ([6]; 80 g/ha): 90%

SMILES: COc1cc(C)cc(C)c1C1=C(O)C2(COC3(CCOCC3)OC2)N(C)C1=O [Example 5-1]
- Post-emergence action against ALOMY ([1]; 20 g/ha): 80%
- Post-emergence action against ALOMY ([1]; 80 g/ha): 90%
- Post-emergence action against ECHCG ([4]; 20 g/ha): 100%
- Post-emergence action against ECHCG ([4]; 80 g/ha): 100%
- Post-emergence action against LOLRI [5]: 90%
- Post-emergence action against SETVI ([6]; 20 g/ha): 90%
- Post-emergence action against SETVI ([6]; 80 g/ha): 90%
- Pre-emergence action against ALOMY [8]: 90%
- Pre-emergence action against AVEFA [9]: 100%
- Pre-emergence action against ECHCG [10]: 100%
- Pre-emergence action against LOLRI ([11]; 80 g/ha): 100%
- Pre-emergence action against LOLRI ([11]; 320 g/ha): 100%

SMILES: COc1cc(C)cc(C)c1C1=C([O-])C2(COC3(CCOCC3)OC2)N(C)C1=O.[Na+] [Example 6-1]
- Post-emergence action against ALOMY ([1]; 80 g/ha): 90%
- Post-emergence action against ECHCG ([4]; 20 g/ha): 90%
- Post-emergence action against ECHCG ([4]; 80 g/ha): 100%
- Post-emergence action against LOLRI [5]: 90%
- Post-emergence action against SETVI ([6]; 20 g/ha): 90%
- Post-emergence action against SETVI ([6]; 80 g/ha): 90%
- Pre-emergence action against ALOMY [8]: 100%
- Pre-emergence action against AVEFA [9]: 90%
- Pre-emergence action against ECHCG [10]: 100%
- Pre-emergence action against LOLRI ([11]; 80 g/ha): 100%
- Pre-emergence action against LOLRI ([11]; 320 g/ha): 100%

SMILES: CCOC(=O)OC1=C(c2c(C)cc(C)cc2OC)C(=O)N(C)C12COC1(CCOCC1)OC2 [Example 8-1]
- Post-emergence action against ECHCG ([4]; 20 g/ha): 80%
- Post-emergence action against ECHCG ([4]; 80 g/ha): 90%
- Post-emergence action against LOLRI [5]: 90%
- Post-emergence action against SETVI ([6]; 20 g/ha): 80%
- Post-emergence action against SETVI ([6]; 80 g/ha): 100%
- Pre-emergence action against ALOMY [8]: 100%
- Pre-emergence action against AVEFA [9]: 100%
- Pre-emergence action against ECHCG [10]: 100%
- Pre-emergence action against LOLRI ([11]; 80 g/ha): 100%
- Pre-emergence action against LOLRI ([11]; 320 g/ha): 100%
